Reference: ChEMBL document CHEMBL3045090, “Synthesis, insecticidal activity, and structure-activity relationship of trifluoromethyl-containing phthalic acid diamide structures” (2010)
In brackets after ≈: the same amount, converted by molar mass.

What was measured:
Type in all cases: functional
[1] = tested on: Plutella xylostella; test: Insecticidal activity against third-instar larval stage of Plutella xylostella (diamondback moth) in cabbage leaves assessed as mortality at 100 ug/ml treated for 10 secs before larva infestation measured after 3 days by dipping method; conditions: 72 h
[2] = tested on: Plutella xylostella; test: Insecticidal activity against third-instar larval stage of Plutella xylostella (diamondback moth) in cabbage leaves assessed as mortality at 100 ug/ml treated for 10 secs before larva infestation measured after 2 days by dipping method; conditions: 48 h
[3] = tested on: Plutella xylostella; test: Insecticidal activity against third-instar larval stage of Plutella xylostella (diamondback moth) in cabbage leaves assessed as mortality at 10 ug/ml treated for 10 secs before larva infestation measured after 3 days by dipping method; conditions: 72 h
[4] = tested on: Plutella xylostella; test: Insecticidal activity against third-instar larval stage of Plutella xylostella (diamondback moth) in cabbage leaves assessed as mortality at 10 ug/ml treated for 10 secs before larva infestation measured after 2 days by dipping method; conditions: 48 h
[5] = tested on: Plutella xylostella; test: Insecticidal activity against third-instar larval stage of Plutella xylostella (diamondback moth) in cabbage leaves assessed as mortality at 0.1 ug/ml treated for 10 secs before larva infestation measured for 3 days by dipping method; conditions: 72 h
[6] = tested on: Plutella xylostella; test: Insecticidal activity against third-instar larval stage of Plutella xylostella (diamondback moth) in cabbage leaves assessed as mortality at 1 ug/ml treated for 10 secs before larva infestation measured for 3 days by dipping method; conditions: 72 h
[7] = tested on: Plutella xylostella; test: Insecticidal activity against third-instar larval stage of Plutella xylostella (diamondback moth) in cabbage leaves assessed as mortality at 5 ug/ml treated for 10 secs before larva infestation measured for 3 days by dipping method; conditions: 72 h
[8] = tested on: Plutella xylostella; test: Insecticidal activity against third-instar larval stage of Plutella xylostella (diamondback moth) in cabbage leaves assessed as mortality treated for 10 secs before larva infestation measured for 3 days by dipping method; conditions: 72 h
[9] = tested on: Plutella xylostella; test: Insecticidal activity against third-instar larval stage of Plutella xylostella (diamondback moth) in cabbage leaves assessed as mortality at 0.5 ug/ml treated for 10 secs before larva infestation measured for 3 days by dipping method; conditions: 72 h

SMILES	mortality at 100 µg/mL [1]	mortality at 100 µg/mL [2]	mortality at 10 µg/mL [4]	further results
CC(C)(C)NC(=O)c1c(I)cccc1C(=O)Nc1cc(F)cc(C(F)(F)F)c1	76%	14%	–	–
CSCC(C)(C)NC(=O)c1c(I)cccc1C(=O)Nc1ccc(C#N)c(C(F)(F)F)c1	–	100%	6%	mortality at 10 µg/mL [3]: 42%
CC(C)(CS(C)(=O)=O)NC(=O)c1c(I)cccc1C(=O)Nc1ccc(Cl)c(C(F)(F)F)c1	–	100%	100%	mortality at 0.1 µg/mL [5]: 4.8%; mortality at 1 µg/mL [6]: 52%; mortality at 5 µg/mL [7]: 100%; LC50 [8]: 0.98 µg/mL (≈ 1.63 µM); mortality at 0.5 µg/mL [9]: 29%
CSCC(C)(C)NC(=O)c1c(I)cccc1C(=O)Nc1ccc(Cl)c(C(F)(F)F)c1	–	100%	100%	mortality at 0.1 µg/mL [5]: 0%; mortality at 1 µg/mL [6]: 62%; mortality at 5 µg/mL [7]: 100%; LC50 [8]: 0.42 µg/mL (≈ 0.736 µM); mortality at 0.5 µg/mL [9]: 57%
CSCC(C)(C)NC(=O)c1c(I)cccc1C(=O)Nc1ccc(F)c(C(F)(F)F)c1	–	100%	100%	mortality at 0.1 µg/mL [5]: 0%; mortality at 1 µg/mL [6]: 33%; mortality at 5 µg/mL [7]: 100%; mortality at 0.5 µg/mL [9]: 0%
CC(C)(CS(C)(=O)=O)NC(=O)c1c(I)cccc1C(=O)Nc1ccc(F)c(C(F)(F)F)c1	–	100%	100%	mortality at 0.1 µg/mL [5]: 0%; mortality at 1 µg/mL [6]: 29%; mortality at 5 µg/mL [7]: 100%; mortality at 0.5 µg/mL [9]: 5%
CC(C)(C)NC(=O)c1c(I)cccc1C(=O)Nc1ccc(Cl)c(C(F)(F)F)c1	100%	85%	20%	mortality at 10 µg/mL [3]: 70%
COc1cc(NC(=O)c2cccc(I)c2C(=O)NC(C)(C)CSC)cc(C(F)(F)F)c1	5%	0%	–	–
CC(C)(CS(C)(=O)=O)NC(=O)c1c(I)cccc1C(=O)Nc1cc(F)cc(C(F)(F)F)c1	–	100%	57%	mortality at 10 µg/mL [3]: 91%
COCC(C)(C)NC(=O)c1c(I)cccc1C(=O)Nc1ccc(C#N)c(C(F)(F)F)c1	0%	0%	–	–
CC(C)(C)NC(=O)c1c(I)cccc1C(=O)Nc1cc(C(F)(F)F)ccc1F	62%	57%	–	–
COc1ccc(NC(=O)c2cccc(I)c2C(=O)NC(C)(C)CSC)cc1C(F)(F)F	50%	5%	–	–
CC(C)(CS(C)(=O)=O)NC(=O)c1c(I)cccc1C(=O)Nc1ccc(C#N)c(C(F)(F)F)c1	100%	57%	0%	mortality at 10 µg/mL [3]: 50%
COCC(C)(C)NC(=O)c1c(I)cccc1C(=O)Nc1ccc(OC)c(C(F)(F)F)c1	0%	0%	–	–
COc1ccc(C(F)(F)F)cc1NC(=O)c1cccc(I)c1C(=O)NC(C)(C)CSC	5%	5%	–	–
CSCC(C)(C)NC(=O)c1c(I)cccc1C(=O)Nc1cc(C(F)(F)F)cc(C(F)(F)F)c1	85%	71%	–	–
Cc1cc(C(F)(C(F)(F)F)C(F)(F)F)ccc1NC(=O)c1cccc(I)c1C(=O)NC(C)(C)CS(C)(=O)=O [FLUBENDIAMIDE]	–	100%	67%	mortality at 0.1 µg/mL [5]: 20%; mortality at 1 µg/mL [6]: 95%; mortality at 10 µg/mL [3]: 100%; mortality at 5 µg/mL [7]: 100%; LC50 [8]: 0.15 µg/mL (≈ 0.22 µM); mortality at 0.5 µg/mL [9]: 90%
CC(C)(C)NC(=O)c1c(I)cccc1C(=O)Nc1cccc(C(F)(F)F)c1	–	100%	50%	mortality at 10 µg/mL [3]: 100%

SMILES	mortality at 100 µg/mL [1]	mortality at 100 µg/mL [2]	mortality at 10 µg/mL [4]	further results
CSCC(C)(C)NC(=O)c1c(I)cccc1C(=O)Nc1cccc(C(F)(F)F)c1	–	100%	90%	mortality at 10 µg/mL [3]: 100%
CC(C)(CS(C)(=O)=O)NC(=O)c1c(I)cccc1C(=O)Nc1cccc(C(F)(F)F)c1	–	100%	95%	mortality at 10 µg/mL [3]: 100%
COc1ccc(C(F)(F)F)cc1NC(=O)c1cccc(I)c1C(=O)NC(C)(C)C	0%	0%	–	–
COCC(C)(C)NC(=O)c1c(I)cccc1C(=O)Nc1cccc(C(F)(F)F)c1	100%	60%	0%	mortality at 10 µg/mL [3]: 13%
CSCC(C)(C)NC(=O)c1c(I)cccc1C(=O)Nc1cc(C(F)(F)F)ccc1F	65%	41%	–	–
COc1ccc(C(F)(F)F)cc1NC(=O)c1cccc(I)c1C(=O)NC(C)(C)CS(C)(=O)=O	0%	0%	–	–
COc1ccc(NC(=O)c2cccc(I)c2C(=O)NC(C)(C)CS(C)(=O)=O)cc1C(F)(F)F	0%	0%	–	–
COCC(C)(C)NC(=O)c1c(I)cccc1C(=O)Nc1cc(C(F)(F)F)ccc1F	12%	6%	–	–
CSCC(C)(C)NC(=O)c1c(I)cccc1C(=O)Nc1cc(F)cc(C(F)(F)F)c1	100%	90%	43%	mortality at 10 µg/mL [3]: 100%
CC(C)(CS(C)(=O)=O)NC(=O)c1c(I)cccc1C(=O)Nc1cc(C(F)(F)F)ccc1F	67%	43%	–	–
COCC(C)(C)NC(=O)c1c(I)cccc1C(=O)Nc1ccc(Cl)c(C(F)(F)F)c1	52%	5%	–	–
COc1cc(NC(=O)c2cccc(I)c2C(=O)NC(C)(C)CS(C)(=O)=O)cc(C(F)(F)F)c1	0%	0%	–	–
CC(C)(CS(C)(=O)=O)NC(=O)c1c(I)cccc1C(=O)Nc1cc(C(F)(F)F)cc(C(F)(F)F)c1	90%	40%	–	–
COCC(C)(C)NC(=O)c1c(I)cccc1C(=O)Nc1cc(C(F)(F)F)cc(C(F)(F)F)c1	0%	0%	–	–
COCC(C)(C)NC(=O)c1c(I)cccc1C(=O)Nc1cc(F)cc(C(F)(F)F)c1	19%	10%	–	–
COc1cc(NC(=O)c2cccc(I)c2C(=O)NC(C)(C)C)cc(C(F)(F)F)c1	10%	10%	–	–
COc1ccc(NC(=O)c2cccc(I)c2C(=O)NC(C)(C)C)cc1C(F)(F)F	5%	0%	–	–
COCC(C)(C)NC(=O)c1c(I)cccc1C(=O)Nc1cc(C(F)(F)F)ccc1OC	0%	0%	–	–
